Results on one molecule are retold here after patent publication US20070142367A1, “METHOD AND MEDICINE FOR TREATING GASTROINTESTINAL DISORDER INCLUDING FECAL INCONTINENCE” (priority 2003, published 2007).

SMILES strings stand for the structures.

The test system of data set [1] is human patient. Kind of data set: Side effects noted in patients under daily oral treatment (case examples). The settings on record: Example 3: 75 mg imipramine pamoate daily without stool softener. From the text:
(§1) The patient takes TYLOX, oxycontin, neurotin, aspirin, and anti-coagulants.

For data set [2], the system named is human having a gastrointestinal disorder that includes fecal incontinence. Description: Treatment of ambulatory patients having fecal incontinence with daily oral medicine (case examples). Type of data set: in vivo. The settings on record: Example 3: person, sprain lumbar spine, 75 mg imipramine pamoate daily without stool softener, after several days.
Excerpt: as §1

With `CN(C)CCCN1c2ccccc2CCc2ccccc21.CN(C)CCCN1c2ccccc2CCc2ccccc21.O=C(O)c1cc2ccccc2c(Cc2c(O)c(C(=O)O)cc3ccccc23)c1O` [imipramine pamoate, 5-[3-(dimethylamino)propyl]-10,11-dihydro-5H-dibenzazepine 4,4-methlyenebis-(3-hydroxy-2-napthoate)], the side effects result in data set [1] is listed as “develops constipation”. For the same molecule, the “bladder and bowel functions as noted by patient” value in data set [2] was “full control of bladder and bowel functions”.
